Converted amounts (≈) assume the structure as drawn.
Columns and labels:
Type-17 collagen [1] = details: eft-400 skin model
Description: (§1) A tissue containing DMSO was prepared as a control.
(§2) The lysates of cultured tissue were subjected to western blotting using an anti-Type-17 collagen antibody (ab95123, Abcam).

physchem = details: distilled water
Description: (§3) A test for confirming water solubility of the pterostilbene glycoside described above was performed. More specifically, solubility in 100 ml of distilled water at room temperature was measured. Pterostilbene (aglycone) was used as a control.

Type-17 collagen [2] = assay: Western blotting of Type-17 collagen protein production in skin model cells; details: Homo sapiens, 168 h, read-out: expression amount of Type-17 collagen, increase in comparison with the control
Description: as §1, §2

[3] = Water solubility test in distilled water
Description: as §3

Row | amount of Type-17 collagen contained in skin model cells, increase compared with the control (Ctrl) (Type-17 collagen [1]) [times] | solubility (physchem) [µg/mL] | SMILES | fold induction at 25 µM (Type-17 collagen [2]) | fold induction at 50 µM (Type-17 collagen [2]) | solubility [3] [µg/mL]
1 | 1.2 | ~13 (≈ 22.4 µM) | COc1cc(/C=C/c2ccc(O[C@@H]3O[C@H](CO)[C@@H](O[C@H]4O[C@H](CO)[C@@H](O)[C@H](O)[C@H]4O)[C@H](O)[C@H]3O)cc2)cc(OC)c1 [pterostilbene diglycoside] |  |  | 
2 |  | ~60 (≈ 143 µM) | COc1cc(/C=C/c2ccc(O[C@@H]3O[C@H](CO)[C@@H](O)[C@H](O)[C@H]3O)cc2)cc(OC)c1 [pterostilbene monoglycoside] | ~1.4 | ~1.6 | 
3 | 1.6 | ~300000 (≈ 404000 µM) | COc1cc(/C=C/c2ccc(O[C@@H]3O[C@H](CO)[C@@H](O[C@H]4O[C@H](CO)[C@@H](O[C@H]5O[C@H](CO)[C@@H](O)[C@H](O)[C@H]5O)[C@H](O)[C@H]4O)[C@H](O)[C@H]3O)cc2)cc(OC)c1 [pterostilbene triglycoside] |  |  | 
4 |  |  | COc1cc(/C=C/c2ccc(O)cc2)cc(OC)c1 [pterostilbene, Pterostilbene] | ~1.1 | ~1.4 | ~5 (≈ 19.5 µM)
